This note sets out measurements from publication PMC4853715, “Design, Synthesis and Antitumor Activity of Novel link-bridge and B-Ring Modified Combretastatin A-4 (CA-4) Analogues as Potent Antitubulin Agents” (Scientific Reports, 2016).

In test [1] the test system is HepG2. Briefly: MTT assay, antiproliferative activity. The following applies: Homo sapiens, 48 h, ± SD. It counts as cell-based. The protocol:
(§1) The in vitro anticancer activities of the prepared compounds against HepG2, Hela, MCF-7, A549, HT-29 and SSC-4 cell lines were evaluated as described in the literature. Target tumor cells were grown to log phase in DMEM medium supplemented with 10% fetal bovine serum. After reaching a dilution of 1 × 10^5 cells Ml^−1 with the medium, 100 μL of the obtained cell suspension was added to each well of 96-well culture plates. Subsequently, incubation was performed at 37 °C in 5% CO2 atmosphere for 12 h before the cytotoxicity assessment. Tested samples at preset concentrations were added to 6 wells with CA-4 being employed as a positive reference. After 48 h exposure period, 25 μL of PBS containing 2.5 mg mL^−1 of MTT (Sigma, USA) was added to each well. After 4 h, the medium was replaced by 150 μL DMSO to dissolve the purple formazan crystals produced. The absorbance at 570 nm of each well was measured with Synergy™ 2 Multi-Mode Microplate Reader. Cell viability (%) was calculated using the following equation: cell viability (%) = (Atreatment/Acontrol) × 100%. The data represented the mean of three independent experiments in triplicate and were expressed as means ± SD.

The subject of test [2] is MCF-7. Put plainly: MTT assay, antiproliferative activity. It is filed as cell-based. To be noted: Homo sapiens, MCF7; MCF-7, MTT, 48 h, ± SD. The protocol: as §1
Test [3] concerns SSC-4. Briefly: MTT assay, antiproliferative activity. It counts as cell-based. To be noted: Homo sapiens; SSC-4, MTT, 48 h, ± SD. The protocol:
as §1
(Tetrazolium assays rely on reduction of a dye to a coloured formazan, in cell work by metabolically active cells.)

For test [4], the system named is A549 cells. Put plainly: Apoptosis assay, Annexin V-FITC/PI flow cytometry. To be noted: A549, 0.8 μM. It counts as cell-based, human. The protocol: The percentages of apoptotic cells were estimated by staining with Annexin-V-FITC and with a PI Apoptosis Detection Kit (KGA105, Keygen biotech, China) according to the manufacturer’s instructions with some modifications. In brief, collected cells were washed once with PBS and subsequently washed once with binding buffer, and then stained with Annexin V-FITC and propidium iodide (PI) in the binding buffer for 20 min at room temperature in the dark. Apoptotic cells were quantified using a […] plotting at least 10,000 events per sample. To quantify the data, the frequencies in all quadrants were analyzed using flowjo 7.6.1 software. Both early apoptotic (Annexin V-positive, PI-negative) and late apoptotic (double positive of Annexin V and PI) cells were detected.
In general terms: Flow cytometry measures light scatter and fluorescence of single cells or particles in a stream.

The test system of test [5] is A549 cells. Put plainly: Detection of intracellular ROS (DCFH-DA flow cytometry). It is filed as cell-based, human. The following applies: A549, versus control cells and positive control. The procedure: Intracellular ROS production was measured by use of active oxygen species assay kit (K0111, Beyotime, China). […] After 30 min of incubation in the darkness, cells were washed with DMEM for three times, and then fluorescent intensity was measured by the flow cytometer with excitation and emission wavelengths of 488 and 525 nm, respectively.

The test system of test [6] is Cyclin B1, Cdc25c, Cdc2, P21 in A549 cells. Put plainly: Western blot of G2/M-related proteins. It counts as cell-based, human. To be noted: A549, 0.5-2.0 μM 48 h; 3.0 μM 12-48 h. The procedure:
Total cellular proteins are extracted with lysis buffer (50 mmol/l Tris [pH 7.4], 150 mmol/l NaCl, 1% Triton X-100, 1% deoxycholicphenyl methylsulfonyl fluoride, 1 mg/ml aprotinin, 5.0 mmol/l sodium pyrophosphate, […] leupeptin, 0.1 mmol/l phenylmethylsulfonyl fluoride, and 1 mmol/l DTT). Protease inhibitors are added immediately before use. The cells are harvested at the end of treatment and extracted for western blot analysis as described previously. After washing twice with PBS, the cultured cells were collected and lysed in lysis buffer (100 mmol/l Tris-Cl, pH 6.8, 4% (m/v) SDS, 20% (v/v) glycerol, 200 mmol/l β-mercaptoethanol, 1 mmol/l phenylmethylsulfonyl fluoride, and […] aprotinin). The lysates were centrifuged at 13,000 × g for 15 min at 4 °C. The concentration of total proteins was measured using the BCA assay method with Varioskan spectrofluorometer and spectrophotometer (Thermo) at 562 nm. Protein samples were separated with 15% SDS-PAGE and transferred onto the polyvinyldifluoride (PVDF) membranes (Millipore, IPVH 304 F0). Immune complexes were formed by incubation of proteins with primary antibodies overnight at 4 °C followed by IRDye^TM 800 conjugated second antibody for 1 hour at 37 °C. Immunoreactive protein bands were detected with an Odyssey Scanning System (LI-COR Biosciences, 9201-03). Antibodies: primary antibodies of cyclin B1, Cdc2, p-Cdc2 (Thr14/Tyr15), Cdc25C, and p21WAF1/Cip1 were all obtained from EPITOMICS (Abcam, Cambridge, UK); antibodies of Bax and Bcl-2 were obtained from Bioworld (Bioworld Technology, Inc., MN, USA); antibodies of caspase-3, and PARP were all obtained from Santa Cruz (Santa Cruz, CA); and antibody of GAPDH was from Boster (Wuhan, China). The secondary antibodies peroxidase-conjugated affinipure Goat Anti-Mouse IgG (H + L) (111-035-003), peroxidase-conjugated affinipure Goat Anti-Rabbit IgG (H + L) (111-035-003) were obtained from Jackson Immuno Research Laboratories, Inc. (USA).

For test [7], the system named is A549 xenograft tumor. Briefly: In vivo anti-tumor activity, A549 xenograft. On the set-up: species or system BALB/c nude mice. The following applies: for average weight of the excised tumors: control group 1.802 g; for tumor growth reduction versus vehicle at end of observation: intraperitoneal, every other day. The protocol: Mice were subcutaneously inoculated with injections of 5.0 × 10^6 cells/nude mice. After 12–14 days, tumor sizes were determined using micrometer calipers, and then nude mice with similar tumor volume (~100 mm^3, eliminate mice with tumors that are too large or too small) were randomly divided them into four groups (with six nude mice/group). […] Both drugs, as well as the vehicle control, were administered every other day for the entire period of observation.
Male BALB/c nude mice, five weeks old and weighing 18–22 g, were supplied by Shanghai Laboratory Animal Limited Company. The mice were raised in air-conditioned rooms under controlled lighting (12 h light-dark cycle at 24 °C) and were fed with standard laboratory food and water ad libitum. Before injection into the mice, the A549 cells were harvested by trypsinization and washed three times with cold serum-free medium and then injected in a total volume of 0.1 mL using a 1 mL latex-free syringe (BD) within 30 min of harvest. Mice were inoculated subcutaneously with A549 cells (5.0 × 10^6) on their shoulders. […] The control group received 0.9% normal saline. Tumor size was measured once every 2 days in two per-pendicular dimensions with Vernier calipers and converted to tumor volume (TV) using the formula: (ab^2)/2, where a and b refer to the longer and shorter dimensions, respectively. The body weight of the animals was measured twice a week to assess toxicity of the treatments at the same time as the tumor dimension measurement and the mortality was monitored daily. After the treatments for eight weeks, the animals were euthanized by cervical dislocation. This study conformed to the Guide for the Care and Use of Laboratory Animals as published by the US National Institutes of Health and was approved by the Institutional Ethics Review Board of Nanjing University.

Consider `COc1cc(/C=N/NC(=O)c2cn(Cc3ccccc3)c3ccccc23)cc(OC)c1OC` [Compound 7], for which the IC50 (in general, the concentration that gives 50% inhibition) turned out to be 630 ± 120 nM in test [1], 640 ± 110 nM in test [2] and 35600 ± 1910 nM in test [3]. Also, the “early apoptosis (Q3)” value in test [4] (12 h) turned out to be 1.84%. Further, the “total percentage of early and late apoptotic cells” value in test [4] (24 h) was determined as 33.05%; in test [4] (48 h) it was 77.2%. Also, the “intracellular ROS production” value in test [5] is “induced the production of significant amounts of ROS”. For the same molecule, the cdc25c expression entry in test [6] is “down-regulated in a dose-dependent and time-dependent manner”. Further, the cyclinB1 expression entry in test [6] is “down-regulated in a dose-dependent and time-dependent manner”. In addition, the p21 expression result in test [6] is reported as “increased”. Moreover, the “average weight of the excised tumors” value is on record as 0.951 g in test [7] (20 mg/kg group) and 0.553 g in test [7] (30 mg/kg group). Moreover, the “tumor growth reduction versus vehicle at end of observation” value in test [7] (20 mg/kg) was determined as 47%; in test [7] (30 mg/kg), 70%.
